Assay results reported in ChEMBL document CHEMBL1240475, “Design and synthesis of novel isoxazole-based HDAC inhibitors” (Eur J Med Chem, 2010).
pIC50: −log10 of the molar value.

Columns and labels:
[1] = molecular target: T1, Histone deacetylase (Homo sapiens) (UniProt Q13547+O15379+Q9UBN7+Q92769+Q9UQL6+Q8WUI4+Q9BY41+Q96DB2+P56524+Q9UKV0+Q969S8); conditions: HeLa, at 1 µM
Description: Inhibition of HDAC in human HeLa cells at 1 uM after 15 mins

[2] = molecular target: T1, Histone deacetylase (Homo sapiens); conditions: HeLa, at 0.1 µM
Description: Inhibition of HDAC in human HeLa cells at 0.1 uM after 15 mins

[3] = molecular target: T1, Histone deacetylase (Homo sapiens); conditions: HeLa, at 10 µM
Description: Inhibition of HDAC in human HeLa cells at 10 uM after 15 mins

Histone deacetylase 1 = Histone deacetylase 1 (Homo sapiens, UniProt Q13547); assay: Inhibition of HDAC1
Histone deacetylase 2 = Histone deacetylase 2 (Homo sapiens, UniProt Q92769)
Histone deacetylase 3 = Histone deacetylase 3 (Homo sapiens, UniProt O15379); assay: Inhibition of HDAC3
[4] = molecular target: T2, Protein deacetylase HDAC6 (Homo sapiens, UniProt Q9UBN7); assay: Inhibition of HDAC6
T2 sequence (Q9UBN7 whole entry): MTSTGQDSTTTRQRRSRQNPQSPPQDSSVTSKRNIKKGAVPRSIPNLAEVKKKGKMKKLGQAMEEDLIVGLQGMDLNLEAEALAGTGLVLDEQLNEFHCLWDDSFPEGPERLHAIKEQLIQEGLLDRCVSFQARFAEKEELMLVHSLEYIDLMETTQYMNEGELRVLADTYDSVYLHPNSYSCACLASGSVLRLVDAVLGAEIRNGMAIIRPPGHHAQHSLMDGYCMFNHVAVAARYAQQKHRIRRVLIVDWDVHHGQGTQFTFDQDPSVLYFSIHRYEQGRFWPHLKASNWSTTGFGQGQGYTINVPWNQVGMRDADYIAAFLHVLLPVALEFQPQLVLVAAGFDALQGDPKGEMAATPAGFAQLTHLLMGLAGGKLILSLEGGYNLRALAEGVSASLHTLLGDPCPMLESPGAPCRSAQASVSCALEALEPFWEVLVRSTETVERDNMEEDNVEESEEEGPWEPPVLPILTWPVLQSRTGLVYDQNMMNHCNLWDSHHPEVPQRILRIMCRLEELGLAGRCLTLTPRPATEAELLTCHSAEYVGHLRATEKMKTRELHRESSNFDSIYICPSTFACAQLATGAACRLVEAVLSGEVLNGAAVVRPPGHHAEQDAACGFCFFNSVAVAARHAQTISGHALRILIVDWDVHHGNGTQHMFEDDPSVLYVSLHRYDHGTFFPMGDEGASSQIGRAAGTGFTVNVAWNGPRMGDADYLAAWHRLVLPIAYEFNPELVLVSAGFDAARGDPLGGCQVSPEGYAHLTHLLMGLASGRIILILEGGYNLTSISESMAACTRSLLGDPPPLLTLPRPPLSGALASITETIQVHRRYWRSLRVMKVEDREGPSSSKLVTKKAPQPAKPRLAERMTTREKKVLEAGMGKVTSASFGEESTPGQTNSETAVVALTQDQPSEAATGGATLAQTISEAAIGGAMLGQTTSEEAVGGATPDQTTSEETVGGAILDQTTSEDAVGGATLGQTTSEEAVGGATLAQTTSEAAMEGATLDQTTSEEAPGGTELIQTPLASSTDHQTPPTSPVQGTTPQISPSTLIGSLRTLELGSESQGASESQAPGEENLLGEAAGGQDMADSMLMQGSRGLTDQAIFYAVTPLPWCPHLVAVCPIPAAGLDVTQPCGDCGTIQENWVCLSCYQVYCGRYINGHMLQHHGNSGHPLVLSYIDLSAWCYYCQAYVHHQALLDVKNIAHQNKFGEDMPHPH

[5] = molecular target: T3, Polyamine deacetylase HDAC10 (Homo sapiens, UniProt Q969S8); assay: Inhibition of HDAC10
T3 sequence (Q969S8 whole entry): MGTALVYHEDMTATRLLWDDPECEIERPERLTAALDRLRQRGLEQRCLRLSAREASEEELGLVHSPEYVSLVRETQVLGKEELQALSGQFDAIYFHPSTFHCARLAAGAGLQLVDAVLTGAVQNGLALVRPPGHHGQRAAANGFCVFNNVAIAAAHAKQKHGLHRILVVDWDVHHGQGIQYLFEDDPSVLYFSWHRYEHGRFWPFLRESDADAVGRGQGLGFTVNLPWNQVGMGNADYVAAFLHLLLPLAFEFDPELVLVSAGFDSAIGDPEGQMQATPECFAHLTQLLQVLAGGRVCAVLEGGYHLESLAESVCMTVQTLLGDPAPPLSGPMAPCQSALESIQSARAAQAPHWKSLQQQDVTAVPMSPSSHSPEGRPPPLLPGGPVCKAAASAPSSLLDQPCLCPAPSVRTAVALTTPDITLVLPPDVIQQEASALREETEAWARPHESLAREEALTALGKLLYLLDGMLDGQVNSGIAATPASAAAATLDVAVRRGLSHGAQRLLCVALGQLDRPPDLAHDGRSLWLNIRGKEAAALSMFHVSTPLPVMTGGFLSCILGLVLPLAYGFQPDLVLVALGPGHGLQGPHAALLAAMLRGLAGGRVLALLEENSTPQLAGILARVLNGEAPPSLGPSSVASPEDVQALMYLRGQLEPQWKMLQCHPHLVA

Sequence of Histone deacetylase 3 (O15379 whole entry): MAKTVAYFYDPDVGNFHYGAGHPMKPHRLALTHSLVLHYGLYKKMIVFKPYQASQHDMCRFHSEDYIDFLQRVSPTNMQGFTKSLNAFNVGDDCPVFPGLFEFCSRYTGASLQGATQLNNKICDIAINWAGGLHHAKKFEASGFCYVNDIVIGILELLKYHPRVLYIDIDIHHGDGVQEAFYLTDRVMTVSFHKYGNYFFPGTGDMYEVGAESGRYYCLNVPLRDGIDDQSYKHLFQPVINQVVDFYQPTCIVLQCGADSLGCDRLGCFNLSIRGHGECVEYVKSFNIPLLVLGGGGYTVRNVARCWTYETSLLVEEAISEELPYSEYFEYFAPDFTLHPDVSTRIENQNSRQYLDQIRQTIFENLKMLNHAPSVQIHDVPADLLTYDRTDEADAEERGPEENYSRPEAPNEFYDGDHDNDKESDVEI
Sequence of Histone deacetylase 1 (Q13547 whole entry): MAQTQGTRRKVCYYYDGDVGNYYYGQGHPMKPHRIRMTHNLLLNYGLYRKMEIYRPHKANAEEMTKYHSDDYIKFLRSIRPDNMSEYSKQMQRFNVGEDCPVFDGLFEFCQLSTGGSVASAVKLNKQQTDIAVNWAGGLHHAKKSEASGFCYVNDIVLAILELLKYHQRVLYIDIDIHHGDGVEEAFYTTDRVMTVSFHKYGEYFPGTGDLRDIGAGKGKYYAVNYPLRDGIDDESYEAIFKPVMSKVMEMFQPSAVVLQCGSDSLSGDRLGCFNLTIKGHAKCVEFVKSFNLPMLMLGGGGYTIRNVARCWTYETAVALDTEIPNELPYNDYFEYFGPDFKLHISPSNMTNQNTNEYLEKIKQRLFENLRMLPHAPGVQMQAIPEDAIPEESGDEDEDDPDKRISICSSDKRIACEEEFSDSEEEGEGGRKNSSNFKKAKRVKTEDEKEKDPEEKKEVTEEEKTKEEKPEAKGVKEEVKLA
Sequence of Histone deacetylase 2 (Q92769 whole entry): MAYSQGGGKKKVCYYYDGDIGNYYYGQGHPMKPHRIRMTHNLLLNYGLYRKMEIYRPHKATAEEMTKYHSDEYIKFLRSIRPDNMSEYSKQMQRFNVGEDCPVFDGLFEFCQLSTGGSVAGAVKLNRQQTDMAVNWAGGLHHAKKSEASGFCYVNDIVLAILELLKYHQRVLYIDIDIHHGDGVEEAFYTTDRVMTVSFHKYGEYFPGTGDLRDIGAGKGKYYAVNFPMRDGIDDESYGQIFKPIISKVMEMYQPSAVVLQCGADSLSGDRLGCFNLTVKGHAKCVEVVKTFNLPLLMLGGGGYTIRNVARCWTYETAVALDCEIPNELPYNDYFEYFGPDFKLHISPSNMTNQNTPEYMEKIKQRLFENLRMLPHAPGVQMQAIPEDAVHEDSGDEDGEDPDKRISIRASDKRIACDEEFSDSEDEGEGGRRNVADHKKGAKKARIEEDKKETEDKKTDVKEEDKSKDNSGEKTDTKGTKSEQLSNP

Nc1cc(CCCCC(=O)Nc2ccccc2)on1
inhibition [1]: 0% | inhibition [2]: 4.5% | inhibition [3]: 0%

O=C(CCCCC1CC(C(=O)NO)=NO1)Nc1ccccc1 (centres undefined)
pIC50 (Histone deacetylase 1): 4.75 | pIC50 (Histone deacetylase 2): 4.44 | pIC50 (Histone deacetylase 3): 4.55 | pIC50 [4]: 6.12 | pIC50 [5]: 4.62 | inhibition [1]: 16.8% | inhibition [2]: 4% | inhibition [3]: 77%

O=C(CCCCc1cc(Cc2nn[nH]n2)no1)Nc1ccccc1
inhibition [1]: 0% | inhibition [2]: 0% | inhibition [3]: 5%

O=C(CCCCc1cc(CS)no1)Nc1ccccc1
inhibition [1]: 22% | inhibition [2]: 4.5% | inhibition [3]: 80%

Nc1ccccc1-c1cc(CCCCC(=O)Nc2ccccc2)on1
inhibition [1]: 0% | inhibition [2]: 0% | inhibition [3]: 0.5%

O=C(CCCCc1cc(/C=N/O)no1)Nc1ccccc1
inhibition [1]: 0.75% | inhibition [2]: 0% | inhibition [3]: 7.5%

O=C(CCCCc1cc(-c2ccccc2O)no1)Nc1ccccc1
inhibition [1]: 0% | inhibition [2]: 0% | inhibition [3]: 0%

NNC(=O)c1cc(CCCCC(=O)Nc2ccccc2)on1
inhibition [1]: 0% | inhibition [2]: 0% | inhibition [3]: 8%

O=C(CCCC1CC(C(=O)NO)=NO1)Nc1ccccc1 (centres undefined)
inhibition [1]: 9.75% | inhibition [2]: 3.5% | inhibition [3]: 56%

O=C(CCCCc1cc(CO)no1)Nc1ccccc1
inhibition [1]: 0% | inhibition [2]: 0% | inhibition [3]: 0%

O=C(CCCCc1cc(C(=O)NO)no1)Nc1ccccc1
pIC50 (Histone deacetylase 1): 5.31 | pIC50 (Histone deacetylase 2): 4.72 | pIC50 (Histone deacetylase 3): 4.57 | pIC50 [4]: 6.37 | pIC50 [5]: 5.04 | inhibition [1]: 26% | inhibition [2]: 1.5% | inhibition [3]: 78.5%

O=C(CCCc1cc(C(=O)NO)no1)Nc1ccccc1
inhibition [1]: 23.8% | inhibition [2]: 4.5% | inhibition [3]: 78.5%

O=C(CCCCc1cc(C(=O)O)no1)Nc1ccccc1
inhibition [1]: 0% | inhibition [2]: 0% | inhibition [3]: 0.5%
